Measured values published in ChEMBL document CHEMBL2086285, “Targeting the liver stage of malaria parasites: a yet unmet goal” (J Med Chem, 2012).

The molecules below were run on Plasmodium cynomolgi (assay: Antimalarial activity against Plasmodium cynomolgi M infected in rhesus monkey administered as po qd for 7 days). Conditions: in Macaca mulatta, 168 h.
Assay type: functional

SMILES	ED50
CCc1ccnc2c(NC(C)CCCN)cc(OC)cc12 (stereo not drawn)	0.45 mg/kg
COc1cc(NCCC(C)N)c2nccc(C)c2c1OC (stereo not drawn)	0.12 mg/kg
COc1cc(NC(C)CCCN)c2nc(C)ccc2c1Oc1ccc(F)cc1 (stereo not drawn)	0.22 mg/kg
COc1cc(NCCCC(C)N)c2ncccc2c1Oc1cccc(C(F)(F)F)c1 (stereo not drawn)	0.5 mg/kg
COc1cc(NC(C)CCCN)c2nccc(C)c2c1OC (stereo not drawn)	0.098 mg/kg
COc1cc(NC(C)CCCN)c2nc(C)cc(C)c2c1 (stereo not drawn)	0.36 mg/kg
CCC(CCCN)Nc1cc(OC)cc2c(C)ccnc12 (stereo not drawn)	0.074 mg/kg
COc1cc(NC(C)CCCN)c2nc(OCc3ccc(C(F)(F)F)cc3)ccc2c1 (stereo not drawn)	0.5 mg/kg
COc1cc(NC(C)CCCN)c2nccc(C)c2c1Oc1cccc(C(F)(F)F)c1 (stereo not drawn)	0.11 mg/kg
COc1cc(NC(C)CCCN)c2nc(C)ccc2c1Oc1ccc(Cl)cc1 (stereo not drawn)	0.19 mg/kg
COc1cc(NC(C)CCCN)c2nc(C)ccc2c1Oc1cccc(C(F)(F)F)c1 (stereo not drawn)	0.36 mg/kg
CCN(CC)CCCNc1cc(OC)cc2c(C)ccnc12	0.51 mg/kg
COc1cc(NCCCC(C)N)c2nccc(C)c2c1 (stereo not drawn)	0.11 mg/kg
COc1cc(NCCCCC(C)N)c2nccc(C)c2c1 (stereo not drawn)	0.12 mg/kg
COc1cc(NC(C)CCCNC(C)C)c2nccc(C)c2c1 (stereo not drawn)	0.32 mg/kg
CCN(CC)CCCNc1cc(OC)cc2c(C)cc(C)nc12	0.36 mg/kg
CCN(CC)CCCCC(C)Nc1cc(OC)cc2c(C)ccnc12 (stereo not drawn)	0.23 mg/kg
COc1cc(NC(C)CCCN)c2nc(N)ccc2c1 (stereo not drawn)	0.36 mg/kg
C=Cc1ccnc2c(NC(C)CCCN)cc(OC)cc12 (stereo not drawn)	0.5 mg/kg
COc1cc(NC(C)CCCN)c2ncccc2c1OC (stereo not drawn)	0.44 mg/kg
COc1cc(NCCCCCNC(C)C)c2nccc(C)c2c1	0.5 mg/kg
CCC(N)CCCNc1cc(OC)cc2c(C)ccnc12 (stereo not drawn)	0.48 mg/kg
COc1cc(NC(C)CCCN)c2nccc(C)c2c1F (stereo not drawn)	0.36 mg/kg
COc1cc(NC(C)CCCCNC(C)C)c2nccc(C)c2c1 (stereo not drawn)	0.35 mg/kg
COc1cc(NC(C)CCCN)c2ncccc2c1Oc1cccc(C(F)(F)F)c1 (stereo not drawn)	0.25 mg/kg
COc1cc(NC(C)CCCN)c2ncccc2c1C(=O)C(F)(F)F (stereo not drawn)	0.44 mg/kg
CCN(CC)CCCCCCNc1cc(OC)cc2c(C)ccnc12 [SITAMAQUINE]	0.35 mg/kg
COc1cc(NCCCC(C)N)c2nc(C)ccc2c1 (stereo not drawn)	0.21 mg/kg

These molecules were tested on Plasmodium vivax (assay: Antimalarial activity against Plasmodium vivax assessed as effect on cure rate after 28 days). Conditions: not given.
Assay type: functional

SMILES	Activity
CN(C)[C@@H]1C(O)=C(C(N)=O)C(=O)[C@@]2(O)C(O)=C3C(=O)c4c(O)cccc4[C@@](C)(O)[C@H]3C[C@@H]12 [TETRACYCLINE]	56%
CCC[C@@H]1C[C@@H](C(=O)N[C@@H]([C@H]2O[C@H](SC)[C@H](O)[C@@H](O)[C@H]2O)[C@H](C)Cl)N(C)C1 [CLINDAMYCIN]	56%

What follows are molecules tested on Plasmodium berghei (assay: Antimalarial activity against liver stages of Plasmodium berghei in human HepG2 cells assessed as growth inhibition at 10 ug/mL). Conditions: read-out: GI.
Assay type: functional

SMILES	inhibition of growth at 10 µg/mL
COc1ccc(-c2c(C)cc(OC)c3c(O)cccc23)c2c1[C@@H](C)N(C=O)[C@H](C)C2	98.3%
COc1c(-c2c(C)cc(OC)c3c(O)cccc23)ccc2c1[C@@H](C)N[C@H](C)C2	48.8%
COc1c2c(cc(O)c1-c1c(C)cc(OC)c3c(OC)cccc13)C[C@@H](C)N=C2C [ANCISTROBARTERINE A]	51.6%
COc1cc(C)c(-c2ccc(OC(=O)c3ccccc3)c3c2C[C@@H](C)N(C=O)[C@@H]3C)c2cccc(O)c12	52.7%
COc1cccc2c(-c3ccc4c(c3O)[C@@H](C)N[C@H](C)C4)c(C)cc(OC)c12 [DIONCOPHYLLINE A]	67.5%
COc1c(C)nc(C)c2c(OC)c(-c3c(C)cc(OC)c4c(OC)cccc34)ccc12 [DIONCOPHYLLACINE A]	41.9%

The molecules below were run on Plasmodium yoelii (assay: Antimalarial activity against Plasmodium yoelii infected in mouse assessed as protection against parasitic infection at 160 mg/kg, po). Conditions: not given.
Assay type: functional

SMILES	Activity
CC(C)N1C(=O)C(=O)N=C1N/C(=N\C(=O)OC(C)(C)C)Nc1ccc(Cl)c(Cl)c1	100%
CCOC(=O)/N=C(\NC1=NC(=O)C(=O)N1C(C)C)Nc1ccc(Cl)c(Cl)c1	100%
